Reference: patent US20210395256A1, “TYROSINE KINASE INHIBITORS, COMPOSITIONS AND METHODS THERE OF” (Betta Pharmaceuticals Co., Ltd., priority 2018, published 2021)
pIC50: −log10 of the molar value.

Biological target: TrkA kinase (Homo sapiens, UniProt P04629)
Assay: TrkA kinase assay (mobility shift assay)
Format: biochemical
Conditions: class symbols; read-out: Trk A Kinase IC50
Protocol: Example 201 TrkA Kinase Assay
Mobility shift assay was used to determine the inhibitory activity of compounds against TrkA kinase. Assay procedures are as follows:
1× Kinase base buffer (50 mM HEPES, pH 7.5; 0.0015% Brij-35)
Stop buffer (100 mM HEPES, pH 7.5; 0.015% Brij-35; 0.2% Coating Reagent #3; 50 mM EDTA)
1) Dilute the compound to 50× of the final desired highest inhibitor concentration in reaction by 100% DMSO. Transfer 100 μl of this compound dilution to a well in a 96-well plate.
2) For all compounds, transfer the compound in tubes to one well on 96-well storage plate and serially dilute the compound by transferring 30 μl to 60 μl of 100% DMSO in the next well and so forth for a total of 10 concentrations.
3) Add 100 μl of 100% DMSO to two empty wells for no compound control and no enzyme control in the same 96-well plate. Mark the plate as source plate.
4) Prepare intermediate plate
Transfer 10 μl of compound from source plate to a new 96-well plate as the intermediate plate
Add 90 µl of 1× kinase buffer to each well of the intermediate plate.
Mix the compounds in intermediate plate for 10 min on shaker.
1) Transfer 5 μl of each well from the 96-well intermediate plate to a 384-well plate in duplicates. For example, A1 of the 96-well plate is transferred to A1 and A2 of the 384-well plate. A2 of the 96-well plate is transferred to A3 and A4 of the 384-well plate, and so on.
1) Prepare 2.5× enzyme solution
Add kinase in 1× kinase base buffer.
2) Prepare 2.5× peptide solution Add FAM-labeled peptide and ATP in the 1× kinase base buffer.
3) Assay plate already contains 5 μl of compound in 10% DMSO.
4) Transfer 2.5× enzyme solution to the assay plate
Add 10 μl of 2.5× enzyme solution to each well of the 384-well assay plate.
5) Incubate at room temperature for 10 min.
6) Transfer 2.5× peptide solution to the assay plate
Add 10 μl of 2.5× peptide solution to each well of the 384-well assay plate.
Kinase reaction conditions are shown as Table 11:
7) Kinase reaction and stop
Incubate at 28° C. for specified period of time.
Add 25 μl of stop buffer to stop reaction.
1) Copy conversion data from Caliper program.
2) Convert conversion values to inhibition values.
Percent inhibition=(max-conversion)/(max-min)*100.
“max” stands for DMSO control; “min” stands for low control.
3) Fit the data in XLFit excel add-in version 5.4.0.8 to obtain IC50 values.
Equation used is: Y=Bottom+(Top-Bottom)/(1+(IC50/X)^HillSlope)

Sequence of TrkA kinase (P04629 33-796): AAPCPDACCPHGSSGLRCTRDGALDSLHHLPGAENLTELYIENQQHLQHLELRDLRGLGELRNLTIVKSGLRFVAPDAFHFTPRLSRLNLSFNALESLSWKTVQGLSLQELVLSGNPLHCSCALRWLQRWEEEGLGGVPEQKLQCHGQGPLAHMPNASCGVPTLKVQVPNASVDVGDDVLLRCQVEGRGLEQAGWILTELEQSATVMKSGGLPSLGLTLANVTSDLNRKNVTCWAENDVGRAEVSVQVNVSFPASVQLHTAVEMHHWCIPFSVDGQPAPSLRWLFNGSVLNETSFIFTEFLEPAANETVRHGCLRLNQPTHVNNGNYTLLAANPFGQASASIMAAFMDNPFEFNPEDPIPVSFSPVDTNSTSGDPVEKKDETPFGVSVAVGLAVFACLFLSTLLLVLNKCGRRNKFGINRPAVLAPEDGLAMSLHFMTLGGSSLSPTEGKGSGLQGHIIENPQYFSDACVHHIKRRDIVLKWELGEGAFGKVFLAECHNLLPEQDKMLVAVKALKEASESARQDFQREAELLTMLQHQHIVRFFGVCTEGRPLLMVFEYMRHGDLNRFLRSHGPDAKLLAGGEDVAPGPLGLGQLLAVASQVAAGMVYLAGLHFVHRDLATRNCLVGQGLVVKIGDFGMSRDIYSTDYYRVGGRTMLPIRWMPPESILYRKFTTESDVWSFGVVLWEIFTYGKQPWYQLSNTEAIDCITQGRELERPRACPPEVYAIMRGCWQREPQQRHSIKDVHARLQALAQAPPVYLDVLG

Q: With `Fc1ccc(F)c([C@H]2CCCN2c2ccn3ncc(-c4nc5cnccc5s4)c3n2)c1` [Compound 75, (R)-2-(5-(2-(2,5-difluorophenyl)pyrrolidin-1-yl)pyrazolo[1,5-a]pyrimidin-3-yl)thiazolo[4,5-c]pyridine] as the compound, how does the pIC50 read?
A: ≥ 8.00

Q: With `Fc1ccc(F)c([C@H]2CCCN2c2ccn3ncc(-c4nc5cc6c(cc5[nH]4)OCCOCCOCCO6)c3n2)c1` [Compound 82, (R)-2-(5-(2-(2,5-difluorophenyl)pyrrolidin-1-yl)pyrazolo[1,5-a]pyrimidin-3-yl)-6,7,9,10,12,13-hexahydro-1H-[1,4,7,10]tetraoxacyclododecino[2′,3′:4,5]benzo[1,2-d]imidazole] as the compound, how does the pIC50 read?
A: 7.30 to 8.00

Q: How did the pIC50 turn out when `Cn1c(-c2cnn3ccc(N4CCC[C@@H]4c4cc(F)ccc4F)nc23)nc2cc3c(cc21)OCCO3` [Compound 83, (R)-2-(5-(2-(2,5-difluorophenyl)pyrrolidin-1-yl)pyrazolo[1,5-a]pyrimidin-3-yl)-1-methyl-6,7-dihydro-1H-[1,4]dioxino[2′,3′:4,5]benzo[1,2-d]imidazole] was run?
A: < 7.30

Q: `COc1cc2nc(-c3cnn4ccc(N5CCC[C@@H]5c5cc(F)ccc5F)nc34)[nH]c2cc1C(=O)NO` [Compound 89, (R)-2-(5-(2-(2,5-difluorophenyl)pyrrolidin-1-yl)pyrazolo[1,5-a]pyrimidin-3-yl)-N-hydroxy-5-methoxy-1H-benzo[d]imidazole-6-carboxamide] was tested. Which pIC50 did it give?
A: 7.30 to 8.00

Q: `CC(O)c1cc2nc(-c3cnn4ccc(N5CCC[C@@H]5c5cc(F)ccc5F)nc34)oc2cc1F` (stereo partly drawn) [Compound 93, 1-(2-(5-((R)-2-(2,5-difluorophenyl)pyrrolidin-1-yl)pyrazolo[1,5-a]pyrimidin-3-yl)-6-fluorobenzo[d]oxazol-5-yl)ethan-1-ol] was tested. Which pIC50 did it give?
A: ≥ 8.00

Same assay, conditions: numeric values; read-out: Trk A Kinase IC50

Q: `CC(O)c1cc2nc(-c3cnn4ccc(N5CCC[C@@H]5c5cc(F)ccc5F)nc34)[nH]c2cn1` (stereo partly drawn) [Compound 70, 1-(2-(5-((R)-2-(2,5-difluorophenyl)pyrrolidin-1-yl)pyrazolo[1,5-a]pyrimidin-3-yl)-3H-imidazo[4,5-c]pyridin-6-yl)ethan-1-ol] was tested. Which pIC50 did it give?
A: 9.30

Q: `Fc1ccc(F)c([C@H]2CCCN2c2ccn3ncc(-c4nc5cc(C(F)(F)F)ncc5[nH]4)c3n2)c1` [Compound 72, (R)-2-(5-(2-(2,5-difluorophenyl)pyrrolidin-1-yl)pyrazolo[1,5-a]pyrimidin-3-yl)-6-(trifluoromethyl)-3H-imidazo[4,5-c]pyridine] was tested. Which pIC50 did it give?
A: 8.85

Q: `Fc1ccc(F)c([C@H]2CCCN2c2ccn3ncc(-c4nc5cnccc5o4)c3n2)c1` [Compound 73, (R)-2-(5-(2-(2,5-difluorophenyl)pyrrolidin-1-yl)pyrazolo[1,5-a]pyrimidin-3-yl)oxazolo[4,5-c]pyridine] was tested. Which pIC50 did it give?
A: 9.23

Q: With `Fc1ccc(F)c([C@H]2CCCN2c2ccn3ncc(-c4nc5ccc(F)cc5[nH]4)c3n2)c1` [Compound 74, (R)-5-(2-(2,5-difluorophenyl)pyrrolidin-1-yl)-3-(6-fluoro-1H-benzo[d]imidazol-2-yl)pyrazolo[1,5-a]pyrimidine] as the compound, how does the pIC50 read?
A: 9.02

Q: With `COc1ccc2nc(-c3cnn4ccc(N5CCC[C@@H]5c5cc(F)ccc5F)nc34)[nH]c2c1` [Compound 77, (R)-5-(2-(2,5-difluorophenyl)pyrrolidin-1-yl)-3-(6-methoxy-1H-benzo[d]imidazol-2-yl)pyrazolo[1,5-a]pyrimidine] as the compound, how does the pIC50 read?
A: 9.15

Q: How did the pIC50 turn out when `COc1cc2nc(-c3cnn4ccc(N5CCC[C@@H]5c5cc(F)ccc5F)nc34)[nH]c2cc1OC` [Compound 78, (R)-5-(2-(2,5-difluorophenyl)pyrrolidin-1-yl)-3-(5,6-dimethoxy-1H-benzo[d]imidazol-2-yl)pyrazolo[1,5-a]pyrimidine] was run?
A: 9.14

Q: `Fc1ccc(F)c([C@H]2CCCN2c2ccn3ncc(-c4nc5ccc(OC(F)F)cc5[nH]4)c3n2)c1` [Compound 81, (R)-3-(6-(difluoromethoxy)-1H-benzo[d]imidazol-2-yl)-5-(2-(2,5-difluorophenyl)pyrrolidin-1-yl)pyrazolo[1,5-a]pyrimidine] was tested. Which pIC50 did it give?
A: 8.66

Q: How did the pIC50 turn out when `COc1ccc2nc(-c3cnn4ccc(N5CCC[C@@H]5c5cc(F)ccc5F)nc34)[nH]c2n1` [Compound 84, (R)-2-(5-(2-(2,5-difluorophenyl)pyrrolidin-1-yl)pyrazolo[1,5-a]pyrimidin-3-yl)-5-methoxy-3H-imidazo[4,5-b]pyridine] was run?
A: 9.74

Q: How did the pIC50 turn out when `COc1cc2[nH]c(-c3cnn4ccc(N5CCC[C@@H]5c5cc(F)ccc5F)nc34)nc2cn1` [Compound 85, (R)-2-(5-(2-(2,5-difluorophenyl)pyrrolidin-1-yl)pyrazolo[1,5-a]pyrimidin-3-yl)-6-methoxy-1H-imidazo[4,5-c]pyridine] was run?
A: 9.51

Q: With `Cc1cc2[nH]c(-c3cnn4ccc(N5CCC[C@@H]5c5cc(F)ccc5F)nc34)nc2cn1` [Compound 86, (R)-2-(5-(2-(2,5-difluorophenyl)pyrrolidin-1-yl)pyrazolo[1,5-a]pyrimidin-3-yl)-6-methy1-1H-imidazo[4,5-c]pyridine] as the compound, how does the pIC50 read?
A: 9.12

Q: `Nc1ncnc2nc(-c3cnn4ccc(N5CCC[C@@H]5c5cc(F)ccc5F)nc34)[nH]c12` [Compound 87, (R)-8-(5-(2-(2,5-difluorophenyl)pyrrolidin-1-yl)pyrazolo[1,5-a]pyrimidin-3-yl)-7H-purin-6-amine] was tested. Which pIC50 did it give?
A: 9.14

Q: With `Oc1ncnc2nc(-c3cnn4ccc(N5CCC[C@@H]5c5cc(F)ccc5F)nc34)[nH]c12` [Compound 88, (R)-8-(5-(2-(2,5-difluorophenyl)pyrrolidin-1-yl)pyrazolo[1,5-a]pyrimidin-3-yl)-7H-purin-6-ol] as the compound, how does the pIC50 read?
A: 9.11

Q: With `COc1cc2nc(-c3cnn4ccc(N5CCC[C@@H]5c5cc(F)ccc5F)nc34)[nH]c2cc1C(N)=O` [Compound 91, (R)-2-(5-(2-(2,5-difluorophenyl)pyrrolidin-1-yl)pyrazolo[1,5-a]pyrimidin-3-yl)-5-methoxy-1H-benzo[d]imidazole-6-carboxamide] as the compound, how does the pIC50 read?
A: 9.59

Q: How did the pIC50 turn out when `Fc1ccc(F)c([C@H]2CCCN2c2ccn3ncc(-c4nc5cccc(Cl)c5[nH]4)c3n2)c1` [Compound 97, (R)-3-(7-chloro-1H-benzo[d]imidazol-2-yl)-5-(2-(2,5-difluorophenyl)pyrrolidin-1-yl)pyrazolo[1,5-a]pyrimidine] was run?
A: 8.72

Q: With `Fc1ccc(F)c([C@H]2CCCN2c2ccn3ncc(-c4nc5cc(F)cc(Cl)c5[nH]4)c3n2)c1` [Compound 98, (R)-3-(7-chloro-5-fluoro-1H-benzo[d]imidazol-2-yl)-5-(2-(2,5-difluorophenyl)pyrrolidin-1-yl)pyrazolo[1,5-a]pyrimidine] as the compound, how does the pIC50 read?
A: 8.06

Q: `Cc1cncc2nc(-c3cnn4ccc(N5CCC[C@@H]5c5cc(F)ccc5F)nc34)[nH]c12` [Compound 99, (R)-2-(5-(2-(2,5-difluorophenyl)pyrrolidin-1-yl)pyrazolo[1,5-a]pyrimidin-3-yl)-7-methyl-1H-imidazo[4,5-c]pyridine] was tested. Which pIC50 did it give?
A: 9.30

Q: How did the pIC50 turn out when `COc1cccc2oc(-c3cnn4ccc(N5CCC[C@@H]5c5cc(F)ccc5F)nc34)nc12` [Compound 100, (R)-2-(5-(2-(2,5-difluorophenyl)pyrrolidin-1-yl)pyrazolo[1,5-a]pyrimidin-3-yl)-4-methoxybenzo[d]oxazole] was run?
A: 9.00

Q: With `Fc1ccc(F)c([C@H]2CCCN2c2ccn3ncc(-c4nc5ncc(Cl)c(Cl)c5[nH]4)c3n2)c1` [Compound 102, (R)-6,7-dichloro-2-(5-(2-(2,5-difluorophenyl)pyrrolidin-1-yl)pyrazolo[1,5-a]pyrimidin-3-yl)-1H-imidazo[4,5-b]pyridine] as the compound, how does the pIC50 read?
A: 8.15
